Results on 20 compounds are retold here after US10385024B2, “Compounds and methods for inhibiting NHE-mediated antiport in the treatment of disorders associated with fluid retention or salt overload and gastrointestinal tract disorders” (Ardelyx, Inc., priority 2012, dated 2019).

Where only a bound is given, the exact number is not on record here.

For data set [1] the following is noted: human absorption data, from Ertl et al., J. Med. Chem., 2000; cited from earlier work.
Another data set concerns the target T1, human NHE-3 (Homo sapiens, UniProt P48764).
T1 construct: expressed in transfected cells; host or cells: Opossum kidney (OK) cells (ATCC), transfected by electroporation
T1 sequence (P48764 26-834): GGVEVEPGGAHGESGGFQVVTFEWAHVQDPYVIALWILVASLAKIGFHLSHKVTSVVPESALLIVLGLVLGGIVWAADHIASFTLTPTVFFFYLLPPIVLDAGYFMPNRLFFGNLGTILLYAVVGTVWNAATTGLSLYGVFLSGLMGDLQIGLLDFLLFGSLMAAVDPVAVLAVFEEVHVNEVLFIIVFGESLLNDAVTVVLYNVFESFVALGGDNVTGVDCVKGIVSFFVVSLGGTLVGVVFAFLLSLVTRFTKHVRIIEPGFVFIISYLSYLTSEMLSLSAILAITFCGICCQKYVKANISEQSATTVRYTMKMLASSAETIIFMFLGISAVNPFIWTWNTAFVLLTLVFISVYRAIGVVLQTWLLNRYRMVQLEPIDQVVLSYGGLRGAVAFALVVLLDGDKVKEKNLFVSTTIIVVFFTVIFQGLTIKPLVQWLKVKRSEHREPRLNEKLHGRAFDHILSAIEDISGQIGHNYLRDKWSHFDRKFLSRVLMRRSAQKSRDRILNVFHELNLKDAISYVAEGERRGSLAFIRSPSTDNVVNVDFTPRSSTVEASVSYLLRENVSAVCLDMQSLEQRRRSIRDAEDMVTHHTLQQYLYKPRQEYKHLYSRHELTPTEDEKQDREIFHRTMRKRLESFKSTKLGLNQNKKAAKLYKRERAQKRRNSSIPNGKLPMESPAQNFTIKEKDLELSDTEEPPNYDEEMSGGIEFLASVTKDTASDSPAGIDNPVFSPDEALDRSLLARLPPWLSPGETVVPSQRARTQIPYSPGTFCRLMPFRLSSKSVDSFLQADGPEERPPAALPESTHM
Description: Cell-based assay of NHE-3 activity (human NHE3 inhibition assay). The settings on record: OK cells with human NHE-3 gene, BCECF pH dye, 0-30 μM test compound. The gist of the method: (§1)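 Opossum kidney cells electroporated with rat or human NHE-3, loaded with 5 μM BCECF-AM in NH4Cl-HEPES pH 7.4 for 30 min at RT, then acidified 10 min in Na+-free choline HEPES. Na+-dependent pH recovery rates from BCECF fluorescence, averaged over ≥2 replicates, gave pIC50.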

The target in data set [2] is T2, Rat NHE-3 (Rattus norvegicus, UniProt P26433).
T2 construct: expressed in transfected cells; host or cells: Opossum kidney (OK) cells (ATCC), transfected by electroporation
Description: Cell-based assay of NHE-3 activity (rat NHE-3 prompt inhibition). The settings on record: OK cells with rat NHE-3 gene, compound present during pH recovery. The essentials: as §1

Data set [3] addresses T2, Rat NHE-3. Description: Cell-based assay of NHE-3 activity (persistent inhibition, after washout). The settings on record: OK cells with rat NHE-3 gene, 60 min incubation, recovery initiated 40 min after compound washout. The gist of the method:
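OK cells transiently expressing rat NHE-3 were exposed to 0-30 μM compound in NaCl-HEPES pH 7.4 for 60 min, then washed free of drug before NH4Cl/BCECF-AM loading and acid-loading in Na+-free choline buffer. Na+-dependent pH recovery rates (mean of ≥2 replicates) gave pIC50.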

For data set [4], the system named is absorption of sodium from the intestinal lumen. Description: Inhibition of intestinal sodium absorption (urinary sodium and fecal form). It is filed as in vivo, Sprague-Dawley rats. The settings on record: rat; for response vs control in vivo at 3 mg/kg: 3 mg/kg oral gavage, urine 16 h post-dose, asterisks = significance vs vehicle (*P<0.05, **P<0.01, ***P<0.001), read-out: uNa (% of vehicle). The essentials:
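Sprague-Dawley rats (8 weeks, n=6) dosed by oral gavage with compound or water vehicle (10 mL/kg) in late afternoon, then housed in metabolic cages. Over 16 h, urinary sodium measured by ion chromatography and expressed as % of vehicle mean; fecal form scored 1–5, averaged from two observations.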

T2 sequence (P26433 29-831): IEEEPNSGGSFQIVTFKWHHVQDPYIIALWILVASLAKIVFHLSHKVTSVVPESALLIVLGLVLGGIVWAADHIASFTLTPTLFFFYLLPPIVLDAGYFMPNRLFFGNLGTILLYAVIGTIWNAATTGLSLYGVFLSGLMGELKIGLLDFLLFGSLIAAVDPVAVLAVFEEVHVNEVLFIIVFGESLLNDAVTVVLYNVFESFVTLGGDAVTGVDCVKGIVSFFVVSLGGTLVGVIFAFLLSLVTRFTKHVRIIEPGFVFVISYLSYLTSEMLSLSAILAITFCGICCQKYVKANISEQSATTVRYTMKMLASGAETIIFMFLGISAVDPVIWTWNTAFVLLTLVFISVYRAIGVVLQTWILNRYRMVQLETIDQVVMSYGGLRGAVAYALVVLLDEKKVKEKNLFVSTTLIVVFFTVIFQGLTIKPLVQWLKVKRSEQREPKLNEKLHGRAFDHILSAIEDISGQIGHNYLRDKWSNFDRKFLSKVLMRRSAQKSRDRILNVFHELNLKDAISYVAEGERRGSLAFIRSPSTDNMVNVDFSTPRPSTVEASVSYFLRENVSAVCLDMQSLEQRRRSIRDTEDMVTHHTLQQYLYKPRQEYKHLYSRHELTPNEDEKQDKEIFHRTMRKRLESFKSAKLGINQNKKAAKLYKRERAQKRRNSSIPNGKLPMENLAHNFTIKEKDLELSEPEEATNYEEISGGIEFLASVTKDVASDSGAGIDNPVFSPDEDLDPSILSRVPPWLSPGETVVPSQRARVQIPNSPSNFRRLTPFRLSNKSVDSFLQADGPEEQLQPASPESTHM

For the compound `O=C(O)P(=O)(O)O` [foscarnet], the “% FA” value in data set [1] is 17%.

Turning to `C=CCOc1ccccc1OCC(O)CNC(C)C` (stereo not drawn) [oxprenolol], the “% FA” value in data set [1] was 97%.

For the compound `O=C(O)c1cc(/N=N/c2ccc(O)c(C(=O)O)c2)ccc1O` [olsalazine], the “% FA” value in data set [1] was 2.3%.

For the compound `OC[C@H]1O[C@H](OC[C@H]2O[C@H](O[C@]3(CO)O[C@H](CO)[C@@H](O)[C@@H]3O)[C@H](O)[C@@H](O)[C@@H]2O)[C@H](O)[C@@H](O)[C@H]1O` [raffinose], in data set [1], the “% FA” value is 0.3%.

On to `CC(=O)Nc1ccc(OCC(O)CNC(C)C)cc1` (stereo not drawn) [practolol], for which, in data set [1], the “% FA” value is listed as 95%.

As to `Cc1ccccc1N1C(=O)c2cc(S(N)(=O)=O)c(Cl)cc2NC1C` (stereo not drawn) [metolazone], the “% FA” value in data set [1] is given as 64%.

As to `CCN1CCCC1CNC(=O)c1cc(S(N)(=O)=O)ccc1OC` (stereo not drawn) [sulpiride], in data set [1], the “% FA” value was 36%.

As for `OC[C@H]1O[C@@H](O[C@@H]2[C@@H](CO)OC(O)(CO)[C@H]2O)[C@H](O)[C@@H](O)[C@H]1O` (mixture of isomers) [lactulose], the “% FA” value in data set [1] is given as 0.6%.

Take `NC[C@H]1CC[C@H](C(=O)O)CC1` [tranexamic acid]: in data set [1], the “% FA” value was 55%.

As for `CN1Cc2c(Cl)cc(Cl)cc2[C@H](c2cccc(S(=O)(=O)NCCOCCOCCNC(=O)NCCCC(CCCNC(=O)NCCOCCOCCNS(=O)(=O)c3cccc([C@@H]4CN(C)Cc5c(Cl)cc(Cl)cc54)c3)(CCCNC(=O)NCCOCCOCCNS(=O)(=O)c3cccc([C@@H]4CN(C)Cc5c(Cl)cc(Cl)cc54)c3)NC(=O)COCC(=O)O)c2)C1` [Example 64], on human NHE-3, the “Human NHE3 pIC50” value is “C (C NHE3 pIC50 > 7)”. Also, the “Rat NHE3 pIC50 (prompt)” value at Rat NHE-3 [2] is given as “C (C NHE3 pIC50 > 7)”. Also, the “Rat NHE3 pIC50 (persistent)” value at Rat NHE-3 [3] was “C (C NHE3 pIC50 > 7)”. Further, the response vs control in vivo at 3 mg/kg in data set [4] lay within 35 to 75%.

Take `CN1Cc2c(Cl)cc(Cl)cc2[C@H](c2cccc(S(=O)(=O)NCCOCCOCCNC(=O)NCCC[N+](C)(CCCNC(=O)NCCOCCOCCNS(=O)(=O)c3cccc([C@@H]4CN(C)Cc5c(Cl)cc(Cl)cc54)c3)CCCNC(=O)NCCOCCOCCNS(=O)(=O)c3cccc([C@@H]4CN(C)Cc5c(Cl)cc(Cl)cc54)c3)c2)C1` [Example 58]: the “Human NHE3 pIC50” value at human NHE-3 is “C (C NHE3 pIC50 > 7)”. On Rat NHE-3 [2], the “Rat NHE3 pIC50 (prompt)” value is reported as “C (C NHE3 pIC50 > 7)”. The “Rat NHE3 pIC50 (persistent)” value at Rat NHE-3 [3] is reported as “C (C NHE3 pIC50 > 7)”. The response vs control in vivo at 3 mg/kg in data set [4] was 35 to 75%.

With `C=CCc1ccccc1OCC(O)CNC(C)C` (stereo not drawn) [alprenolol], the “% FA” value in data set [1] is 96%.

`CC(C)NCC(O)COc1cccc2[nH]ccc12` (stereo not drawn) [pindolol]: the “% FA” value in data set [1] is 92%.

As to `CN1Cc2c(Cl)cc(Cl)cc2[C@H](c2cccc(S(=O)(=O)NCCOCCOCCNC(=O)NCCC(CCNC(=O)NCCOCCOCCNS(=O)(=O)c3cccc([C@@H]4CN(C)Cc5c(Cl)cc(Cl)cc54)c3)(CCNC(=O)NCCOCCOCCNS(=O)(=O)c3cccc([C@@H]4CN(C)Cc5c(Cl)cc(Cl)cc54)c3)NC(=O)COCC(=O)O)c2)C1` [Example 66], on human NHE-3, the “Human NHE3 pIC50” value is on record as “C (C NHE3 pIC50 > 7)”. In addition, the “Rat NHE3 pIC50 (prompt)” value at Rat NHE-3 [2] was “C (C NHE3 pIC50 > 7)”. Besides, the “Rat NHE3 pIC50 (persistent)” value at Rat NHE-3 [3] is listed as “C (C NHE3 pIC50 > 7)”. The response vs control in vivo at 3 mg/kg in data set [4] was below 35%.

With `CN1Cc2c(Cl)cc(Cl)cc2[C@H](c2cccc(S(=O)(=O)NCCOCCOCCNC(=O)CCC(CCC(=O)NCCOCCOCCNS(=O)(=O)c3cccc([C@@H]4CN(C)Cc5c(Cl)cc(Cl)cc54)c3)(CCC(=O)NCCOCCOCCNS(=O)(=O)c3cccc([C@@H]4CN(C)Cc5c(Cl)cc(Cl)cc54)c3)NC(=O)N3CCN(CCOCCO)CC3)c2)C1` [Example 33], the “Human NHE3 pIC50” value on human NHE-3 is “C (C NHE3 pIC50 > 7)”. Also, the “Rat NHE3 pIC50 (prompt)” value on Rat NHE-3 [2] is “C (C NHE3 pIC50 > 7)”. The “Rat NHE3 pIC50 (persistent)” value on Rat NHE-3 [3] is listed as “C (C NHE3 pIC50 > 7)”. In addition, the FFS in data set [4] (fecal form score, scale 1 (normal pellet) to 5 (liquid fecal streams), group average, 3 mg/kg oral, 16 h post-dose, vehicle = 1) was 2. In data set [4], the response vs control in vivo at 3 mg/kg was below 35%.

Take `CN1Cc2c(Cl)cc(Cl)cc2[C@H](c2cccc(S(=O)(=O)NCCOCCOCCN(C)C(=O)CCC(N)(CCC(=O)N(C)CCOCCOCCNS(=O)(=O)c3cccc([C@@H]4CN(C)Cc5c(Cl)cc(Cl)cc54)c3)CCC(=O)N(C)CCOCCOCCNS(=O)(=O)c3cccc([C@@H]4CN(C)Cc5c(Cl)cc(Cl)cc54)c3)c2)C1` [Example 67]: the “Human NHE3 pIC50” value on human NHE-3 is “C (C NHE3 pIC50 > 7)”. On Rat NHE-3 [2], the “Rat NHE3 pIC50 (prompt)” value is on record as “C (C NHE3 pIC50 > 7)”. Further, at Rat NHE-3 [3], the “Rat NHE3 pIC50 (persistent)” value was “C (C NHE3 pIC50 > 7)”. Moreover, the response vs control in vivo at 3 mg/kg in data set [4] was above 75%.

In the case of `CNC(=O)NC(CCC(=O)NCCOCCOCCNS(=O)(=O)c1cccc([C@@H]2CN(C)Cc3c(Cl)cc(Cl)cc32)c1)(CCC(=O)NCCOCCOCCNS(=O)(=O)c1cccc([C@@H]2CN(C)Cc3c(Cl)cc(Cl)cc32)c1)CCC(=O)NCCOCCOCCNS(=O)(=O)c1cccc([C@@H]2CN(C)Cc3c(Cl)cc(Cl)cc32)c1` [Example 26], at human NHE-3, the “Human NHE3 pIC50” value is “C (C NHE3 pIC50 > 7)”. In addition, the “Rat NHE3 pIC50 (prompt)” value on Rat NHE-3 [2] is reported as “B (B NHE3 pIC50 5-7)”. Also, on Rat NHE-3 [3], the “Rat NHE3 pIC50 (persistent)” value is reported as “C (C NHE3 pIC50 > 7)”. Further, the response vs control in vivo at 3 mg/kg in data set [4] is below 35%.

As to `CN(C)CC(=O)NC(CCC(=O)N(C)CCOCCOCCNS(=O)(=O)c1cccc([C@@H]2CN(C)Cc3c(Cl)cc(Cl)cc32)c1)(CCC(=O)N(C)CCOCCOCCNS(=O)(=O)c1cccc([C@@H]2CN(C)Cc3c(Cl)cc(Cl)cc32)c1)CCC(=O)N(C)CCOCCOCCNS(=O)(=O)c1cccc([C@@H]2CN(C)Cc3c(Cl)cc(Cl)cc32)c1` [Example 68], the “Human NHE3 pIC50” value on human NHE-3 is reported as “C (C NHE3 pIC50 > 7)”. The “Rat NHE3 pIC50 (prompt)” value on Rat NHE-3 [2] is “C (C NHE3 pIC50 > 7)”. The “Rat NHE3 pIC50 (persistent)” value at Rat NHE-3 [3] is reported as “C (C NHE3 pIC50 > 7)”. The response vs control in vivo at 3 mg/kg in data set [4] is 35 to 75%.

On to `O=C(O)c1cc(/N=N/c2ccc(S(=O)(=O)Nc3ccccn3)cc2)ccc1O` [sulfasalazine], for which the “% FA” value in data set [1] is recorded as 12%.

Turning to `OC[C@@H](O)[C@@H](O)[C@H](O)[C@H](O)CO` [mannitol], in data set [1], the “% FA” value is recorded as 26%.
